Here are results for two molecules from patent US20120129817A1, “COMBINATION TREATMENT FOR DIABETES MELLITUS” (NYCOMED GMBH, priority 2006, published 2012).

Assay [1] concerns db/db-mice. Nature of the assay: HbA1c levels in db/db-mice after 4 weeks of once daily oral treatment (Micromat II Hemoglobin A1c Test). The format is in vivo. The conditions noted are these: female obese db/db-mice; Compound A 3 mg/kg orally, RIMONABANT Hydrochloride 10 mg/kg orally or combination of both, once daily for 4 weeks; vs vehicle; FIG. 1. The procedure:
(§1) Aim of the study was to investigate the influence of a combination of RIMONABANT Hydrochloride and Compound A on HbA1c and glucose tolerance.
(§2) Female obese db/db-mice (BKS.Cg/BomTac-m+/+Lepr^db), supplied by Taconic Europe (Denmark) were used at the age of 10-11 weeks. Animals were kept under controlled conditions (22° C., 12 h light/12 h dark cycle) and received standard laboratory chow and water ad libitum. For each group a number of 15 animals were used.
(§3) Animals were treated with Compound A [3 mg/kg orally, suspended in methocel (hypromellose, 4% aequous solution)], RIMONABANT Hydrochloride [10 mg/kg orally, suspended in methocel (hypromellose, 4% aequous solution), Sequoia Research Products, Pangbourne, UK] or a combination of both once daily for 4 weeks. Vehicle treated animals served as control. HbA1c levels were analyzed using the Micromat II Hemoglobin A1c Test (Bio-Rad Laboratories GmbH, 80939 München, Germany). An intraperitoneal glucose tolerance test was performed in 24 h fasted animals. A glucose bolus (1 g/kg body weight) was administered intraperitoneally. Blood glucose was monitored for the following time points: t=−120 min, 0 min (before glucose administration), 30 min, 60 min, 90 min, 120 min (after glucose administration). Blood was taken by tail-tip-bleeding (5 μl) and was determined from hemolysate using an analyzing machine (Biosen S_line, EKF Diagnostic, Germany). […]

The test system of assay [2] is db/db-mice. The experiment in a line: Intraperitoneal glucose tolerance test in 24 h fasted db/db-mice after 4 weeks of treatment. The format is in vivo. The note with it: female obese db/db-mice, glucose bolus 1 g/kg i.p., Compound A 3 mg/kg orally, RIMONABANT Hydrochloride 10 mg/kg orally or combination of both, once daily for 4 weeks, FIG. 2. On the procedure: as §1, §2, §3

Where a name gives a salt, the structure may show the parent alone.

Turning to `CCOc1cc2c(cc1OC)C(c1ccc(OC)nc1OC)=N[C@@H]1CC[C@@H](O)C[C@H]21` [Compound A, (2R,4aR,10bR)-6-(2,6-Dimethoxy-pyridin-3-yl)-9-ethoxy-8-methoxy-1,2,3,4,4a,10b-hexahydrophenanthridin-2-ol], the “effect on HbA1c” value in the assay with db/db-mice [1] is recorded as “no effect”. Besides, in the assay on db/db-mice [2], the “effect on glucose tolerance” value is “no effect”.

As for `Cc1c(C(=O)NN2CCCCC2)nn(-c2ccc(Cl)cc2Cl)c1-c1ccc(Cl)cc1` [RIMONABANT Hydrochloride, 5-(4-chlorophenyl)-1-(2,4-dichlorophenyl)-4-methyl-N-piperidin-1-yl-1H-pyrazole-3-carboxamide], in the assay with db/db-mice [1], the “effect on HbA1c” value is reported as “no effect”. Besides, the “effect on glucose tolerance” value with db/db-mice [2] is “no effect”.
